Assay results reported in US6686361B2, “R-6-hydroxy-buspirone” (Bristol-Myers Squibb Company, priority 2001, dated 2004).

How the values were obtained:
human 5-HT1A receptor [1] = target: T1, human 5-HT1A receptor (Homo sapiens, UniProt P08908); conditions: preclinical studies, background; cited from earlier work
T1 construct: expressed in transfected cells; host or cells: HEK293
T1 sequence (P08908 1-422): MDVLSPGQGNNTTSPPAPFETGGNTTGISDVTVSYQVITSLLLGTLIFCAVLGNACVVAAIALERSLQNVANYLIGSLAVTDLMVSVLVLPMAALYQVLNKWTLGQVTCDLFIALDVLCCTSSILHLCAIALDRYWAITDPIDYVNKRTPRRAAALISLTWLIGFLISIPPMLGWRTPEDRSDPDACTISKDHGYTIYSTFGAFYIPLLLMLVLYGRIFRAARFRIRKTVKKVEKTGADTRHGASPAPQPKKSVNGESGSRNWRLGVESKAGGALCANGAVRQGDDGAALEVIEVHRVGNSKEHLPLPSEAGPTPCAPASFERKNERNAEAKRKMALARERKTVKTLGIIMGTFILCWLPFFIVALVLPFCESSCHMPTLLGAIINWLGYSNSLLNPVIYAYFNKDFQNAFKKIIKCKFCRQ

[2] = test system: rat pup ultrasonic vocalizations; experiment: Rat pup isolation-induced ultrasonic vocalization test; type: in vivo; conditions: rat pups; for anxiolytic activity (ultrasonic vocalizations): 0.3 and 1 mg/kg s.c.
Procedure: Harlan Sprague-Dawley rat pups (male and female) were housed in polycarbonate cages with the dam until 9-11 days old. Thirty minutes before testing, pups were removed from the dam, placed into a new cage with a small amount of home bedding and brought into the lab and placed under a light to maintain body temperature at 37° C. Pups were then weighed, sexed, marked and returned to the litter group until behavioral assessment. Testing took place in a Plexiglas recording chamber that contained a metal plate maintained at (18-20° C.) with a 5×5 cm grid drawn on the plate. A microphone was suspended 10 cm above the plate to record ultrasonic vocalizations. Ultrasonic calls were recorded using the Noldus UltraVox system providing online analysis of the frequency and duration of calls. The number of grid cells entered by the pup was also collected by visual scoring. […] Immediately following the collection of the baseline measures, pups were injected with vehicle or drug subcutaneously at the nape of the neck and returned to its littermates. Thirty minutes later, pups were retested on each of the dependent measures (vocalization and grid cell crossings) to assess drug effects. Unless otherwise specified, each pup was used only once. Baseline differences and percent change from baseline for the frequency of ultrasonic vocalizations and grid cell crossings were analyzed using a one-way ANOVA. Bonferroni/Dunn post hoc comparisons were performed to assess the acute drug effects with vehicle control. Log-probit analysis was used to estimate the dose (milligrams per kilogram) of each agonist predicted to inhibit isolation-induced ultrasonic vocalizations by 50% (ID50). All comparison were made with an experimental type I error rate (α) set at 0.05.
Doses for each drug were administered in an irregular order across several litters. R-6-hydroxy-buspirone and racemic 6-hydroxy-buspirone were dissolved in physiological saline (0.9% NaCl; vehicle). All injections were administered subcutaneously in a volume of 10 ml/kg. Doses of the drug refer to weight of the salt.

[3] = test system: rat pup ultrasonic vocalizations; conditions: functional testing, background; cited from earlier work
D2(h) = D2(h) (Homo sapiens, UniProt P14416); experiment: Receptor binding, D2(h)
human 5-HT1A receptor [4] = target: T1, human 5-HT1A receptor; experiment: 5-HT1A receptor binding assay; conditions: human 5-HT1A receptor expressed in HEK293 cells, 3H-8-OH-DPAT
Procedure: Membranes are prepared for binding using the human 5-HT1 A receptor expressed in HEK293 cells. Cells are collected and ruptured using a dounce homogenizer. The cells are spun at 18000×g for 10 minutes and the pellet is resuspended in assay buffer, frozen in liquid nitrogen and kept at −80° C. until the day of the assay.
A total of 30 ug protein is used per well. The assay is carried out in 96-deep-well plates. The assay buffer is 50 mM HEPES containing 2.5 mM MgCl2 and 2 mM EGTA. The membrane preparation is incubated at 25° C. for 60 minutes with 0.1 nM to 1000 nM test compound and 1 nM 3H-8-OH-DPAT. […] serotonin serves as blocking agent to determine non-specific binding. The reaction is terminated by the addition of 1 ml of ice cold 50 mM HEPES buffer and rapid filtration through a Brandel Cell Harvester using Whatman GF/B filters. The filter pads are counted in an LKB Trilux liquid scintillation counter. IC50 values are determined using non-linear regression by Excel-fit.

Sequence of D2(h) (P14416 whole entry): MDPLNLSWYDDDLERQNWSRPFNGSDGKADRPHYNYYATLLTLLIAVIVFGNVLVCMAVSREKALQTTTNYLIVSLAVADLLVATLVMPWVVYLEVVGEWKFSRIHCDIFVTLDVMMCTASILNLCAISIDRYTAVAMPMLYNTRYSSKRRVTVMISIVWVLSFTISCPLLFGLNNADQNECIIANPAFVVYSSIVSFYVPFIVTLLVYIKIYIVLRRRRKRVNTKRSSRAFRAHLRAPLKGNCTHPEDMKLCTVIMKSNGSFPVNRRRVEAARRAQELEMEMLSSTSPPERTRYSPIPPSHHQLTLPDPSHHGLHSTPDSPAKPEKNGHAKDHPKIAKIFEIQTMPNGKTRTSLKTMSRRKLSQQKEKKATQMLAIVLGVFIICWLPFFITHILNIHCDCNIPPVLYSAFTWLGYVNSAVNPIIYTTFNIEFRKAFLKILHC

Structure (SMILES) | affinity for the human 5-HT1A receptor (human 5-HT1A receptor [1]) | anxiolytic activity (ultrasonic vocalizations) [2] | animal movement, measured by crossing grid boundary lines ([2]; compared to animals dosed with the single enantiomer) | anxiolytic response in the rat pup ultrasonic vocalization test [3] | Ki (D2(h)) [nM] | Ki (human 5-HT1A receptor [4]) [nM]
O=C1CC2(CCCC2)C(O)C(=O)N1CCCCN1CCN(c2ncccn2)CC1 (racemic) [6-hydroxy-buspirone] | strong affinity | Statistically significant anxiolytic activity | appeared to be reduced | dose-dependent anxiolytic response | – | –
O=C1CC2(CCCC2)[C@@H](O)C(=O)N1CCCCN1CCN(c2ncccn2)CC1 [R-6-hydroxy-buspirone] | – | Statistically significant anxiolytic activity | – | – | 2870 | 14
O=C1CC2(CCCC2)[C@H](O)C(=O)N1CCCCN1CCN(c2ncccn2)CC1 [S-6-hydroxy-buspirone] | – | – | – | – | 1300 | 24
